Assays:
Test in all cases: relative viability (nuclei count vs DMSO), 5 days (fraction); higher = more cells survive
[1] = tested on: NCI-H1944
Procedure, shortened: (§1)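 Relative viability is defined as nuclei in treated wells over nuclei in vehicle wells. Duplicate plates were run and medians reported. Lung cancer cell lines in 1536-well plates were dosed by pin tool one day after seeding, with one drug or with a fixed anchor-drug dose plus five library-drug doses (not always all listed) in √10 steps, and nuclei were counted after 5 days.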

[2] = tested on: SK-MES-1
Procedure, shortened: as §1

[3] = tested on: NCI-H1734
Procedure, shortened: as §1

[4] = tested on: NCI-H358
Procedure, shortened: as §1

[5] = tested on: EMC-BAC-2
Procedure, shortened: as §1

[6] = tested on: NCI-H2087
Procedure, shortened: as §1

[7] = tested on: NCI-H1792
Procedure, shortened: as §1

[8] = tested on: LK-2
Procedure, shortened: as §1

[9] = tested on: HCC-78
Procedure, shortened: as §1

[10] = tested on: ChaGo-K-1
Procedure, shortened: as §1

[11] = tested on: EPLC-272H
Procedure, shortened: as §1

[12] = tested on: SW 1573
Procedure, shortened: as §1

[13] = tested on: LU99A
Procedure, shortened: as §1

[14] = tested on: HCC-827
Procedure, shortened: as §1

[15] = tested on: COR-L 105
Procedure, shortened: as §1

[16] = tested on: LCLC-97TM1
Procedure, shortened: as §1

[17] = tested on: LOU-NH91
Procedure, shortened: as §1

[18] = tested on: NCI-H727
Procedure, shortened: as §1

[19] = tested on: NCI-H2126
Procedure, shortened: as §1

[20] = tested on: NCI-H1650
Procedure, shortened: as §1

[21] = tested on: BEN
Procedure, shortened: as §1

[22] = tested on: EKVX
Procedure, shortened: as §1

[23] = tested on: RERF-LC-KJ
Procedure, shortened: as §1

## O=C(O)CCCCC(CCSCc1ccccc1)SCc1ccccc1 (centres undefined) [CPI-613] + C[C@@H](Oc1cc(-c2cnn(C3CCNCC3)c2)cnc1N)c1c(Cl)ccc(F)c1Cl [Crizotinib] (partner 1 µM)
[1]; first compound 5 µM
  relative viability: 1.22
[1]; first compound 15.81 µM
  relative viability: 1.02
[1]; first compound 50 µM
  relative viability: 1.07
[1]; first compound 158.11 µM
  relative viability: 1.06
[1]; first compound 500 µM
  relative viability: 0.891
[2]; first compound 5 µM
  relative viability: 0.918
[2]; first compound 15.81 µM
  relative viability: 0.961
[2]; first compound 50 µM
  relative viability: 0.936
[2]; first compound 158.11 µM
  relative viability: 0.926
[2]; first compound 500 µM
  relative viability: 0.734
[3]; first compound 5 µM
  relative viability: 0.695
[3]; first compound 15.81 µM
  relative viability: 0.685
[3]; first compound 50 µM
  relative viability: 0.62
[3]; first compound 158.11 µM
  relative viability: 0.279
[3]; first compound 500 µM
  relative viability: 0.113
[4]; first compound 5 µM
  relative viability: 0.659
[4]; first compound 15.81 µM
  relative viability: 0.606
[4]; first compound 50 µM
  relative viability: 0.501
[4]; first compound 158.11 µM
  relative viability: 0.104
[4]; first compound 500 µM
  relative viability: 0.0191
[5]; first compound 5 µM
  relative viability: 0.753
[5]; first compound 15.81 µM
  relative viability: 0.708
[5]; first compound 50 µM
  relative viability: 0.83
[5]; first compound 158.11 µM
  relative viability: 0.494
[5]; first compound 500 µM
  relative viability: 0.267
[6]; first compound 5 µM
  relative viability: 0.909
[6]; first compound 15.81 µM
  relative viability: 0.706
[6]; first compound 50 µM
  relative viability: 0.706
[6]; first compound 158.11 µM
  relative viability: 0.132
[6]; first compound 500 µM
  relative viability: 0.0499
[7]; first compound 5 µM
  relative viability: 0.937
[7]; first compound 15.81 µM
  relative viability: 0.909
[7]; first compound 50 µM
  relative viability: 0.914
[7]; first compound 158.11 µM
  relative viability: 0.91
[7]; first compound 500 µM
  relative viability: 0.753
[8]; first compound 5 µM
  relative viability: 0.225
[8]; first compound 15.81 µM
  relative viability: 0.191
[8]; first compound 50 µM
  relative viability: 0.227
[8]; first compound 158.11 µM
  relative viability: 0.219
[8]; first compound 500 µM
  relative viability: 0.249
[9]; first compound 5 µM
  relative viability: 0.346
[9]; first compound 15.81 µM
  relative viability: 0.318
[9]; first compound 158.11 µM
  relative viability: 0.348
[9]; first compound 500 µM
  relative viability: 0.331
[10]; first compound 5 µM
  relative viability: 1.14
[10]; first compound 15.81 µM
  relative viability: 1.05
[10]; first compound 50 µM
  relative viability: 0.992
[10]; first compound 158.11 µM
  relative viability: 1.04
[10]; first compound 500 µM
  relative viability: 0.813
[11]; first compound 5 µM
  relative viability: 0.9
[11]; first compound 15.81 µM
  relative viability: 0.925
[11]; first compound 50 µM
  relative viability: 1.03
[11]; first compound 158.11 µM
  relative viability: 0.855
[11]; first compound 500 µM
  relative viability: 1.07
[12]; first compound 5 µM
  relative viability: 0.81
[12]; first compound 15.81 µM
  relative viability: 0.749
[12]; first compound 50 µM
  relative viability: 0.878
[12]; first compound 158.11 µM
  relative viability: 0.819
[12]; first compound 500 µM
  relative viability: 0.419
[13]; first compound 5 µM
  relative viability: 0.618
[13]; first compound 15.81 µM
  relative viability: 0.546
[13]; first compound 50 µM
  relative viability: 0.589
[13]; first compound 158.11 µM
  relative viability: 0.168
[13]; first compound 500 µM
  relative viability: 0.0638
[14]; first compound 5 µM
  relative viability: 0.878
[14]; first compound 15.81 µM
  relative viability: 0.906
[14]; first compound 50 µM
  relative viability: 0.843
[14]; first compound 158.11 µM
  relative viability: 0.412
[14]; first compound 500 µM
  relative viability: 0.225
[15]; first compound 5 µM
  relative viability: 0.727
[15]; first compound 15.81 µM
  relative viability: 0.772
[15]; first compound 50 µM
  relative viability: 0.753
[15]; first compound 158.11 µM
  relative viability: 0.242
[15]; first compound 500 µM
  relative viability: 0.169
[16]; first compound 5 µM
  relative viability: 0.465
[16]; first compound 15.81 µM
  relative viability: 0.516
[16]; first compound 50 µM
  relative viability: 0.379
[16]; first compound 158.11 µM
  relative viability: 0.11
[16]; first compound 500 µM
  relative viability: 0.0433
[17]; first compound 5 µM
  relative viability: 0.801
[17]; first compound 15.81 µM
  relative viability: 0.692
[17]; first compound 50 µM
  relative viability: 0.765
[17]; first compound 158.11 µM
  relative viability: 0.71
[17]; first compound 500 µM
  relative viability: 0.722
[18]; first compound 5 µM
  relative viability: 0.875
[18]; first compound 15.81 µM
  relative viability: 0.743
[18]; first compound 50 µM
  relative viability: 0.797
[18]; first compound 158.11 µM
  relative viability: 0.244
[18]; first compound 500 µM
  relative viability: 0.0831
[19]; first compound 5 µM
  relative viability: 1.01
[19]; first compound 15.81 µM
  relative viability: 0.999
[19]; first compound 50 µM
  relative viability: 0.942
[19]; first compound 158.11 µM
  relative viability: 0.706
[19]; first compound 500 µM
  relative viability: 0.23
[20]; first compound 5 µM
  relative viability: 0.991
[20]; first compound 15.81 µM
  relative viability: 0.854
[20]; first compound 50 µM
  relative viability: 0.853
[20]; first compound 158.11 µM
  relative viability: 0.579
[20]; first compound 500 µM
  relative viability: 0.0088
[21]; first compound 5 µM
  relative viability: 0.802
[21]; first compound 15.81 µM
  relative viability: 0.739
[21]; first compound 50 µM
  relative viability: 0.807
[21]; first compound 158.11 µM
  relative viability: 0.743
[21]; first compound 500 µM
  relative viability: 0.769
[22]; first compound 5 µM
  relative viability: 0.885
[22]; first compound 15.81 µM
  relative viability: 0.817
[22]; first compound 50 µM
  relative viability: 0.891
[22]; first compound 158.11 µM
  relative viability: 1.02
[22]; first compound 500 µM
  relative viability: 0.952
[23]; first compound 5 µM
  relative viability: 0.841
[23]; first compound 15.81 µM
  relative viability: 0.789
[23]; first compound 50 µM
  relative viability: 0.76
[23]; first compound 158.11 µM
  relative viability: 0.876
[23]; first compound 500 µM
  relative viability: 0.268
